Experimental data from ChEMBL document CHEMBL4480380, “Identification and biological evaluation of novel benzothiazole derivatives bearing a pyridine-semicarbazone moiety as apoptosis inducers via activation of procaspase-3 to caspase-3” (Medchemcomm, 2019).
The source made the active and inactive calls. No cut-off for these calls is given here.

Tests used:
U-937 [1] = experiment: Induction of apoptosis in human U937 cells assessed as early apoptotic cells at 3.3 uM after 24 hrs by Annexin V-FITC/propidium iodide staining-based flow cytometric analysis (reference value: 4.88%); assay type: functional
U-937 [2] = experiment: Induction of apoptosis in human U937 cells assessed as caspase-3 activity at 30 uM using Ac-DEVD-AFC as substrate preincubated for 16 hrs followed by substrate addition and measured after 60 mins by fluorescence assay (reference value: 7+/- 1%); assay type: functional
U-937 [3] = experiment: Induction of apoptosis in human U937 cells assessed as early apoptotic cells at 6.6 uM after 48 hrs by Annexin V-FITC/propidium iodide staining-based flow cytometric analysis (reference value: 6.16%); assay type: functional
[4] = Toxicity in zebrafish AB embryos assessed as induction of mortality at 40 uM after 72 hrs post fertilization by stereo microscopic analysis; parameters: species or system Danio rerio; settings: in vivo
U-937 [5] = experiment: Induction of apoptosis in human U937 cells assessed as late apoptotic cells at 6.6 uM after 24 hrs by Annexin V-FITC/propidium iodide staining-based flow cytometric analysis (reference value: 3.27%); assay type: functional
[6] = Half life in mouse liver microsomes in presence of NADPH by LC-MS analysis; assay type: ADME, Microsome
MCF7 = experiment: Antiproliferative activity against human MCF7 cells after 24 hrs by CCK-8 assay; assay type: functional, cell-based; settings: MCF7, 24 h
U-937 [7] = experiment: Induction of apoptosis in human U937 cells assessed as early apoptotic cells at 6.6 uM after 24 hrs by Annexin V-FITC/propidium iodide staining-based flow cytometric analysis (reference value: 4.88%); assay type: functional
[8] = Toxicity in zebrafish AB embryos at 40 uM after 48 hrs post fertilization by stereo microscopic analysis; parameters: species or system Danio rerio; settings: in vivo
[9] = Half life in human liver microsomes in presence of NADPH by LC-MS analysis; assay type: ADME, Microsome
[10] = Intrinsic clearance in mouse liver microsomes in presence of NADPH by LC-MS analysis; assay type: ADME, Microsome; settings: read-out: CLH
U-937 [11] = experiment: Induction of apoptosis in human U937 cells assessed as late apoptotic cells at 3.3 uM after 48 hrs by Annexin V-FITC/propidium iodide staining-based flow cytometric analysis (reference value: 3.89%); assay type: functional
U-937 [12] = experiment: Induction of apoptosis in human U937 cells assessed as early apoptotic cells at 3.3 uM after 48 hrs by Annexin V-FITC/propidium iodide staining-based flow cytometric analysis (reference value: 6.16%); assay type: functional
U-937 [13] = experiment: Antiproliferative activity against human procaspase-3 over-expressing U937 cells after 24 hrs by CCK-8 assay; assay type: functional, cell-based; settings: U-937, 24 h
U-937 [14] = experiment: Induction of apoptosis in human U937 cells assessed as late apoptotic cells at 3.3 uM after 24 hrs by Annexin V-FITC/propidium iodide staining-based flow cytometric analysis (reference value: 3.27%); assay type: functional
U-937 [15] = experiment: Induction of apoptosis in human U937 cells assessed as late apoptotic cells at 6.6 uM after 48 hrs by Annexin V-FITC/propidium iodide staining-based flow cytometric analysis (reference value: 3.89%); assay type: functional
[16] = Half life in rat liver microsomes in presence of NADPH by LC-MS analysis; assay type: ADME, Microsome
Danio rerio [17] = species: Danio rerio; experiment: Induction of apoptosis in zebrafish AB embryos assessed as accumulation of dying cells in cranial neural crest at 40 to 60 uM after 24 hrs post fertilization by acridine orange staining-based fluorescence microscopic analysis; assay type: functional, organism-based
[18] = Intrinsic clearance in rat liver microsomes in presence of NADPH by LC-MS analysis; assay type: ADME, Microsome; settings: read-out: CLH
[19] = Intrinsic clearance in human liver microsomes in presence of NADPH by LC-MS analysis; assay type: ADME, Microsome; settings: read-out: CLH
Danio rerio [20] = species: Danio rerio; experiment: Induction of apoptosis in zebrafish AB embryos assessed as increase in bax mRNA expression at 40 to 60 uM after 24 hrs post fertilization by RT-PCR analysis; assay type: functional, organism-based
[21] = Toxicity in zebrafish AB embryos at 5 to 20 uM measured at 24 to 72 hrs post fertilization by stereo microscopic analysis; parameters: species or system Danio rerio; settings: in vivo
Caspase-3 (Homo sapiens) = target: T1, Caspase-3 (Homo sapiens) (UniProt P42574); experiment: Activation of procaspase-3 (unknown origin) at 10 uM using Ac-DEVD-AFC as substrate preincubated for 4 hrs followed by substrate addition and measured after 5 mins by fluorescence assay relative to control
T1 sequence (whole entry): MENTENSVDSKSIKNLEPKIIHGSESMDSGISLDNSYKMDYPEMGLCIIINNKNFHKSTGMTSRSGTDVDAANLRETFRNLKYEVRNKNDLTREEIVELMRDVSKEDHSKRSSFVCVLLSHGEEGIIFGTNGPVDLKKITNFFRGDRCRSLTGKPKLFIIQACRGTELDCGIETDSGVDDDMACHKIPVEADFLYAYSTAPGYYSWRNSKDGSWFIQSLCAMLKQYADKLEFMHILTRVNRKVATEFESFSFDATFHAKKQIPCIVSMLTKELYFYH

[22] = Selectivity ratio of IC50 for human MCF7 cells to IC50 for human procaspase-3 over-expressing U937 cells; assay type: functional
Danio rerio [23] = species: Danio rerio; experiment: Induction of apoptosis in zebrafish AB embryos assessed as accumulation of dying cells in head at 40 to 60 uM after 24 hrs post fertilization by acridine orange staining-based fluorescence microscopic analysis; assay type: functional, organism-based

CC1CCN(Cc2ccc3nc(NC(=O)NN=C(c4ccccn4)c4ccccn4)sc3c2)CC1
Activity (U-937 [1]): 15.85% | Activity (U-937 [2]): 114% | Activity (U-937 [3]): 26.89% | Activity [4]: Toxic | Activity (U-937 [5]): 8.5% | half-life [6]: 0.279 h | IC50 (MCF7): > 40 µM | Activity (U-937 [7]): 19.27% | Activity [8]: Toxic | half-life [9]: 1.32 h | CLint scaled [10]: 326 mL/min/kg | Activity (U-937 [11]): 9.86% | Activity (U-937 [12]): 20.55% | IC50 (U-937 [13]): 6.6 µM | Activity (U-937 [14]): 6.75% | Activity (U-937 [15]): 17.66% | half-life [16]: 1.23 h | Activity (Danio rerio [17]): Active | CLint scaled [18]: 33.6 mL/min/kg | CLint scaled [19]: 22 mL/min/kg | Activity (Danio rerio [20]): Active | Activity [21]: Non-Toxic | Activity (Caspase-3 (Homo sapiens)): 92.1% | Ratio IC50 [22]: 6 | Activity (Danio rerio [23]): Active
